Measurements reported in patent publication US20090048269A1 (AstraZeneca AB, priority 2007, published 2009).

Target: T1, human ALK5 (Homo sapiens, UniProt P36897)
T1 sequence (P36897 162-503): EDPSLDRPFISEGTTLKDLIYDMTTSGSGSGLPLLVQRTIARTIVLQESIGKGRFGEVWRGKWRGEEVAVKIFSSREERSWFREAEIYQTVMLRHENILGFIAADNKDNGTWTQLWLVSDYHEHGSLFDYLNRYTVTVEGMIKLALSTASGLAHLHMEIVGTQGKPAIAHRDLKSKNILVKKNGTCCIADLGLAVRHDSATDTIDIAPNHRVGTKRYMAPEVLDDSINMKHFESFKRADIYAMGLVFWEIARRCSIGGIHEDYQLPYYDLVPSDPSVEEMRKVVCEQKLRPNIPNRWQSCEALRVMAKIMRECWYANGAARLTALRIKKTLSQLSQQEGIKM
Assay: ALK5 Enzyme Assay 2 (fluorescence polarisation probe displacement)
Type: binding
Parameters: 6His tagged human ALK5 (residues162-503) was grown and purified from insect cells; 6His; made in house; host or cells: insect cells
Settings: read-out: EAA2: activity (μM) using Enzyme Assay 2
Procedure, shortened: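 Recombinant ALK5 (3 μg/mL) incubated with test compound in 50 mM HEPES pH7.4, 10 mM MgCl2, 1 mM DTT, 0.01% CHAPS. Displacement of a fluorescent quinazoline-based ALK5 probe (50 nM final) in presence of 1 μM ATP read by fluorescence polarisation.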

| SMILES | IC50 |
| --- | --- |
| Cc1ccc(Oc2ccnc(Nc3ccccn3)c2)c(C)n1 [Example 153, 4-(2,6-Dimethylpyridin-3-yl)oxy-N-pyridin-2-ylpyridin-2-amine] | 0.0238 µM |
| COc1cc(Nc2cc(Oc3ccc(C)nc3N3CCCC3)ccn2)cc(OC)c1OC [Example 164, 4-(6-Methyl-2-(pyrrolidin-1-yl)pyridin-3-yloxy)-N-(3,4,5-trimethoxyphenyl)pyridin-2-amine] | 0.0275 µM |
| COc1cc(Nc2cc(Oc3ccc(C)nc3-c3ccco3)ccn2)cc(OC)c1OC [Example 165, 4-[2-(Furan-2-yl)-6-methylpyridin-3-yloxy]-N-(3,4,5-trimethoxy-phenyl)pyridin-2-amine] | 0.0126 µM |
| CCCc1nc(C)ccc1Oc1ccnc(Nc2cc(OC)c(OC)c(OC)c2)c1 [Example 166, 4-(6-Methyl-2-propylpyridin-3-yloxy)-N-(3,4,5-trimethoxy-phenyl)pyridin-2-amine] | 0.597 µM |
| COc1cc(Nc2cc(Oc3ccc(C)nc3C3CCCO3)ccn2)cc(OC)c1OC (stereo not drawn) [Example 167, 4-[6-Methyl-2-(oxolan-2-yl)pyridin-3-yl]oxy-N-(3,4,5-trimethoxy-phenyl)pyridin-2-amine] | 0.0568 µM |
| COc1ccc(-c2nc(C)ccc2Oc2ccnc(Nc3cc(OC)c(OC)c(OC)c3)c2)cn1 [Example 169, 4-(6′-Methoxy-6-methyl-2,3′-bipyridin-3-yloxy)-N-(3,4,5-trimethoxyphenyl)pyridin-2-amine] | 0.0751 µM |
| COc1cc(Nc2cc(Oc3ccc(C)nc3-c3cncnc3)ccn2)cc(OC)c1OC [Example 173, 4-(6-Methyl-2-pyrimidin-5-ylpyridin-3-yl)oxy-N-(3,4,5-trimethoxyphenyl)pyridin-2-amine] | 0.0966 µM |
| Cc1ccc(Oc2ccnc(Nc3cccc(CN4CCN(S(C)(=O)=O)CC4)c3)c2)c(C)n1 [Example 175, 4-(2,6-Dimethylpyridin-3-yl)oxy-N-{3-[(4-methylsulfonyl-piperazin-1-yl)methyl]phenyl}pyridin-2-amine] | 0.00611 µM |
| Cc1ccc(Oc2ccnc(Nc3cccc(CN4CCNCC4)c3)c2)c(C)n1 [Example 176, 4-(2,6-Dimethylpyridin-3-yl)oxy-N-[3-(Piperazin-1-ylmethyl)-phenyl]pyridin-2-amine] | 0.00829 µM |
| Cc1ccc(Oc2ccnc(Nc3cccc(CN4CCN(C(=O)NC56CC7CC(CC(C7)C5)C6)CC4)c3)c2)c(C)n1 [Example 177] | 0.0469 µM |
| Cc1ccc(Oc2ccnc(Nc3cccc(CN4CCN(C(=O)NC5CCCCC5)CC4)c3)c2)c(C)n1 [Example 178, N-Cyclohexyl-4-{3-[4-(2,6-dimethylpyridin-3-yloxy)pyridin-2-ylamino]benzyl}piperazine-1-carboxamide] | 0.0237 µM |
| Cc1ccc(Oc2ccnc(Nc3cccc(CN4CCN(C(=O)Nc5ccc(F)c(Cl)c5)CC4)c3)c2)c(C)n1 [Example 180, N-(3-Chloro-4-fluorophenyl)-4-[(3-{[4-(2,6-dimethylpyridin-3-yl)oxypyridin-2-yl]amino}phenyl)methyl]piperazine-1-carboxamide] | 0.0896 µM |
| CCCCCNC(=O)N1CCN(Cc2cccc(Nc3cc(Oc4ccc(C)nc4C)ccn3)c2)CC1 [Example 181, 4-[(3-{[4-(2,6-Dimethylpyridin-3-yl)oxypyridin-2-yl]amino}-phenyl)methyl]-N-pentylpiperazine-1-carboxamide] | 0.0159 µM |
| Cc1ccc(Oc2ccnc(Nc3cccc(CN4CCN(S(=O)(=O)c5cccnc5-n5cncn5)CC4)c3)c2)c(C)n1 [Example 182, 4-(2,6-Dimethylpyridin-3-yl)oxy-N-[3-({4-[2-(1,2,4-triazol-1-yl)-pyridin-3-yl]sulfonylpiperazin-1-yl}methyl)phenyl]pyridin-2-amine] | 0.0183 µM |
| Cc1ccc(Oc2ccnc(Nc3cccc(CN4CCN(C(=O)C5CC5)CC4)c3)c2)c(C)n1 [Example 183, N-(3-{[4-(cyclopropylcarbonyl)piperazin-1-yl]methyl}phenyl)-4-[(2,6-dimethylpyridin-3-yl)oxy]pyridin-2-amine] | 0.0127 µM |
| Cc1ccc(Oc2ccnc(Nc3cccc(CN4CCN(C(=O)C5CCOCC5)CC4)c3)c2)c(C)n1 [Example 186, {4-[(3-{[4-(2,6-Dimethylpyridin-3-yl)oxypyridin-2-yl]amino}-phenyl)methyl]piperazin-1-yl}-(oxan-4-yl)methanone] | 0.0238 µM |

More lines, now with the values ahead:

| IC50 | SMILES |
| --- | --- |
| 0.0339 µM | Cc1ccc(Oc2ccnc(Nc3ccc(CC#N)cc3)c2)c(-c2ccccc2)n1 [Example 148, 2-(4-{[4-(6-Methyl-2-phenylpyridin-3-yl)oxypyridin-2-yl]-amino}phenyl)acetonitrile] |
| 0.014 µM | Cc1ccc(Oc2ccnc(Nc3ccc(S(N)(=O)=O)cc3)c2)c(-c2ccccc2)n1 [Example 149, 4-{[4-(6-Methyl-2-phenylpyridin-3-yl)oxypyridin-2-yl]amino}-benzenesulfonamide] |
| 0.0047 µM | Cc1ccc(Oc2ccnc(Nc3ccccn3)c2)c(-c2ccccc2)n1 [Example 150, 4-(6-Methyl-2-phenylpyridin-3-yl)oxy-N-pyridin-2-ylpyridin-2-amine] |
| 0.0137 µM | Cc1ccc(Oc2ccnc(Nc3ccc(C(N)=O)cc3)c2)c(-c2ccccc2)n1 [Example 151, 4-{[4-(6-Methyl-2-phenylpyridin-3-yl)oxypyridin-2-yl]amino}-benzamide] |
| 0.00705 µM | Cc1ccc(Oc2ccnc(Nc3ccc(CO)cc3)c2)c(-c2ccccc2)n1 [Example 152, (4-{[4-(6-Methyl-2-phenylpyridin-3-yl)oxypyridin-2-yl]amino}-phenyl)methanol] |
| 0.0197 µM | Cc1ccc(Oc2ccnc(Nc3ccc(CO)cc3)c2)c(C)n1 [Example 154, (4-{[4-(2,6-Dimethylpyridin-3-yl)oxypyridin-2-yl]amino}phenyl)-methanol] |
| 0.0816 µM | Cc1ccc(Oc2ccnc(Nc3ccc(CC#N)cc3)c2)c(-c2ccc(F)cc2)n1 [Example 155, 2-[4-({4-[2-(4-Fluorophenyl)-6-methylpyridin-3-yl]oxypyridin-2-yl}amino)phenyl]acetonitrile] |
| 0.0454 µM | Cc1ccc(Oc2ccnc(Nc3ccc(S(N)(=O)=O)cc3)c2)c(-c2ccc(F)cc2)n1 [Example 156, 4-({4-[2-(4-Fluorophenyl)-6-methylpyridin-3-yl]oxypyridin-2-yl}amino)benzenesulfonamide] |
| 0.0474 µM | Cc1ccc(Oc2ccnc(Nc3ccc(C(N)=O)cc3)c2)c(-c2ccc(F)cc2)n1 [Example 157, 4-({4-[2-(4-Fluorophenyl)-6-methylpyridin-3-yl]oxypyridin-2-yl}-amino)benzamide] |
| 0.0315 µM | Cc1ccc(Oc2ccnc(Nc3ccc(CO)cc3)c2)c(-c2ccc(F)cc2)n1 [Example 158, [4-({4-[2-(4-Fluorophenyl)-6-methylpyridin-3-yl]oxypyridin-2-yl}-amino)phenyl]methanol] |
| 0.00299 µM | Cc1ccc(Oc2ccnc(Nc3ccc(CC#N)cc3)c2)c(-c2ccco2)n1 [Example 159, 2-[4-({4-[2-(Furan-2-yl)-6-methylpyridin-3-yl]oxypyridin-2-yl}-amino)phenyl]acetonitrile] |
| 0.0128 µM | Cc1ccc(Oc2ccnc(Nc3ccc(S(N)(=O)=O)cc3)c2)c(-c2ccco2)n1 [Example 160, 4-({4-[2-(Furan-2-yl)-6-methylpyridin-3-yl]oxypyridin-2-yl}-amino)benzenesulfonamide] |
| 0.00855 µM | Cc1ccc(Oc2ccnc(Nc3ccccn3)c2)c(-c2ccco2)n1 [Example 161, 4-[2-(Furan-2-yl)-6-methylpyridin-3-yl]oxy-N-pyridin-2-yl-pyridin-2-amine] |
| 0.0204 µM | Cc1ccc(Oc2ccnc(Nc3ccc(C(N)=O)cc3)c2)c(-c2ccco2)n1 [Example 162, 4-({4-[2-(Furan-2-yl)-6-methylpyridin-3-yl]oxypyridin-2-yl}-amino)benzamide] |
| 0.00528 µM | Cc1ccc(Oc2ccnc(Nc3ccc(CO)cc3)c2)c(-c2ccco2)n1 [Example 163, [4-({4-[2-(Furan-2-yl)-6-methylpyridin-3-yl]oxypyridin-2-yl}-amino)phenyl]methanol] |
| 0.0228 µM | COc1ccc(-c2nc(C)ccc2Oc2ccnc(Nc3cc(OC)c(OC)c(OC)c3)c2)cc1 [Example 168, 4-[2-(4-Methoxyphenyl)-6-methylpyridin-3-yl-oxy]-N-(3,4,5-trimethoxyphenyl)pyridin-2-amine] |
| 0.0239 µM | COc1cc(Nc2cc(Oc3ccc(C)nc3-c3ccc(F)cc3)ccn2)cc(OC)c1OC [Example 171, 4-[2-(4-Fluorophenyl)-6-methylpyridin-3-yloxy]-N-(3,4,5-trimethoxyphenyl)pyridin-2-amine] |
| 0.061 µM | COc1cc(Nc2cc(Oc3ccc(C)nc3-c3cccnc3)ccn2)cc(OC)c1OC [Example 172, 4-(6-Methyl-2,3′-bipyridin-3-yloxy)-N-(3,4,5-trimethoxyphenyl)-pyridin-2-amine] |
| 0.0113 µM | Cc1ccc(Oc2ccnc(Nc3cccc(CO)c3)c2)c(C)n1 [Example 174, (3-{[4-(2,6-Dimethylpyridin-3-yl)oxypyridin-2-yl]amino}phenyl)-methanol] |
| 0.0233 µM | COc1ccc(NC(=O)N2CCN(Cc3cccc(Nc4cc(Oc5ccc(C)nc5C)ccn4)c3)CC2)cc1 [Example 179, 4-[(3-{[4-(2,6-Dimethylpyridin-3-yl)oxypyridin-2-yl]-amino}phenyl)methyl]-N-(4-methoxyphenyl)piperazine-1-carboxamide] |
